≈ marks a conversion by molar mass, not a printed value. Read-outs that look alike come from different tables or passages of the source.
How the values were obtained:
Assay type in all cases: cell-based
N. gonorrhoeae WHO K = experiment: Liquid broth MIC in Fastidious broth; settings: Neisseria gonorrhoeae
Method in brief: (§1)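 Broth microdilution in Fastidious broth with 2-fold compound series; inoculum from 24 h chocolate agar colonies, 5×10^5 CFU/mL start. Incubated ~24 hours at 36° C, 5% CO2. MIC read visually as lowest concentration giving <10% growth versus full-growth wells; strains carry mosaic PBP2.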

N. gonorrhoeae H041 = experiment: Liquid broth MIC in Fastidious broth; settings: Neisseria gonorrhoeae
Method in brief: as §1

N. gonorrhoeae WHO G = experiment: Liquid broth MIC in Fastidious broth; settings: Neisseria gonorrhoeae, Fastidious broth
Method in brief: (§2)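 Colonies were swabbed from chocolate agar after 24 h growth and standardised by optical density at 600 nm. Compounds were serially diluted twofold in Fastidious broth, and bacteria added to give 5×10^5 CFU/mL. After about 24 h at 36 °C in 5% CO2, the lowest concentration allowing under 10% growth was taken as MIC.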

N. gonorrhoeae WHO Z = experiment: Liquid broth MIC in Fastidious broth; settings: Neisseria gonorrhoeae
Method in brief: as §1

N. gonorrhoeae WHO Q = experiment: Liquid broth MIC in Fastidious broth; settings: Neisseria gonorrhoeae
Method in brief: as §1

[1] = tested on: N. gonorrhoeae ATCC 49226; experiment: Liquid broth MIC in Fastidious broth; settings: Neisseria gonorrhoeae, ATCC49226, Fastidious broth
Method in brief: as §2

N. gonorrhoeae WHO L = experiment: Liquid broth MIC in Fastidious broth; settings: Neisseria gonorrhoeae, Fastidious broth
Method in brief: as §2

N. gonorrhoeae FA1090 = experiment: Liquid broth MIC in Fastidious broth; settings: Neisseria gonorrhoeae, Fastidious broth
Method in brief: as §2

E. coli D22 = experiment: Broth microdilution MIC in CAMHB; settings: Escherichia coli; E. coli D22 (hyper-permeable); MHB; read-out: Minimum Inhibitory Concentration, E. coli D22
Method in brief: (§3)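 CLSI broth microdilution in CAMHB: 2-fold compound dilutions inoculated at 2-8×10^5 CFU/mL from 3-5 h log-phase cultures. Incubated at 37 °C for 16-20 h (Enterobacteriaceae, Pseudomonas); MIC read visually as lowest concentration without growth. Strains include hyper-permeable and efflux-deficient mutants.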

E. coli 901C = experiment: Broth microdilution MIC in CAMHB; settings: Escherichia coli; E. coli 901C (hyper-permeable); MHB; read-out: Minimum Inhibitory Concentration, E. coli 901C
Method in brief: as §3

E. coli AG100 = experiment: Broth microdilution MIC in CAMHB; settings: Escherichia coli; E. coli AG100 (wild-type parent); MHB; read-out: Minimum Inhibitory Concentration, E. coli AG100
Method in brief: as §3

E. coli AG100A = experiment: Broth microdilution MIC in CAMHB; settings: Escherichia coli, read-out: Minimum Inhibitory Concentration, E. coli AG100A
Method in brief: as §3

[2] = tested on: K. pneumoniae UMM producing SHV-5 and KPC-2; experiment: Broth microdilution MIC in CAMHB; settings: Klebsiella pneumoniae, read-out: Minimum Inhibitory Concentration, K. pneumoniae UMM
Method in brief: as §3

[3] = read-out: Minimum Inhibitory Concentration, N. gonorrhoeae WHO K
[4] = H041, read-out: Minimum Inhibitory Concentration, N. gonorrhoeae H041
[5] = N. gonorrhoeae strain WHO G, read-out: Minimum Inhibitory Concentration, N. gonorrhoeae WHO G
[6] = read-out: Minimum Inhibitory Concentration, N. gonorrhoeae WHO Z
[7] = read-out: Minimum Inhibitory Concentration, N. gonorrhoeae WHO Q
[8] = N. gonorrhoeae strain ATCC 49226, read-out: Minimum Inhibitory Concentration, N. gonorrhoeae ATCC 49226
[9] = N. gonorrhoeae strain WHO L, read-out: Minimum Inhibitory Concentration, N. gonorrhoeae WHO L
[10] = N. gonorrhoeae strain FA1090, read-out: Minimum Inhibitory Concentration, N. gonorrhoeae FA1090

SMILES	MIC (N. gonorrhoeae WHO K; [3]) [µg/mL]	MIC (N. gonorrhoeae H041; [4]) [µg/mL]	MIC (N. gonorrhoeae WHO G; [5]) [µg/mL]	MIC (N. gonorrhoeae WHO Z; [6]) [µg/mL]	MIC (N. gonorrhoeae WHO Q; [7]) [µg/mL]	MIC [1, 8] [µg/mL]	MIC (N. gonorrhoeae WHO L; [9]) [µg/mL]	MIC (N. gonorrhoeae FA1090; [10]) [µg/mL]	MIC (E. coli D22) [µg/mL]	MIC (E. coli 901C) [µg/mL]	MIC (E. coli AG100) [µg/mL]	MIC (E. coli AG100A) [µg/mL]	MIC [2] [µg/mL]	further results
NCCN1CCN(C(=O)N[C@H](C(=O)N[C@H]2Cc3cccc(C(=O)O)c3OB2O)c2ccc(O)c([N+](=O)[O-])c2)C(=O)C1=O (single isomer, unassigned) [Example 200]	> 64	> 64	> 64	> 64	> 64	> 64	> 64	4 to 8 (≈ 6.85 to 13.7 µM)	> 128	8 to 16 (≈ 13.7 to 27.4 µM)	> 128	32 to 64 (≈ 54.8 to 110 µM)	> 128	–
CCN1CCN(C(=O)N[C@@H](C(=O)N[C@H]2Cc3cccc(C(=O)O)c3OB2O)c2c(O)cc(O)cc2F)C(=O)C1=O (single isomer, unassigned) [Example 182]	16 to 32 (≈ 28.7 to 57.3 µM)	> 64	1 to 2 (≈ 1.79 to 3.58 µM)	16 to 32 (≈ 28.7 to 57.3 µM)	16 to 32 (≈ 28.7 to 57.3 µM)	4 to 8 (≈ 7.16 to 14.3 µM)	16 to 32 (≈ 28.7 to 57.3 µM)	< 0.125	0.5 to 1 (≈ 0.896 to 1.79 µM)	< 0.25	8 to 16 (≈ 14.3 to 28.7 µM)	0.5 to 1 (≈ 0.896 to 1.79 µM)	8 to 16 (≈ 14.3 to 28.7 µM)	–
O=C(O)c1cccc2c1OB(O)[C@@H](NC(=O)C(NC(=O)N1CCN(C3CNC3)C(=O)C1=O)c1c(F)cc(O)cc1F)C2 (stereo partly drawn) [Example 212, (3R)-3-(2-(4-(azetidin-3-yl)-2,3-dioxopiperazine-1-carboxamido)-2-(2,6-difluoro-4-hydroxyphenyl)acetamido)-2-hydroxy-3,4-dihydro-2H-benzo[e][1,2]oxaborinine-8-carboxylic acid]	–	–	–	–	–	–	–	–	2 to 4 (≈ 3.41 to 6.81 µM)	0.5 to 1 (≈ 0.851 to 1.7 µM)	8 to 16 (≈ 13.6 to 27.2 µM)	2 to 4 (≈ 3.41 to 6.81 µM)	8 to 16 (≈ 13.6 to 27.2 µM)	MIC (N. gonorrhoeae WHO K; read-out: Minimum Inhibitory Concentration, WHO K): > 64 µg/mL; MIC (N. gonorrhoeae H041; H041, read-out: Minimum Inhibitory Concentration, H041): > 64 µg/mL; MIC (N. gonorrhoeae WHO G; N. gonorrhoeae WHO G, read-out: Minimum Inhibitory Concentration, WHO G): 16 to 32 µg/mL (≈ 27.2 to 54.5 µM); MIC (N. gonorrhoeae WHO Z; read-out: Minimum Inhibitory Concentration, WHO Z): > 64 µg/mL; MIC (N. gonorrhoeae WHO Q; read-out: Minimum Inhibitory Concentration, WHO Q): > 64 µg/mL; MIC ([1]; N. gonorrhoeae ATCC 49226, read-out: Minimum Inhibitory Concentration, ATCC 49226): 16 to 32 µg/mL (≈ 27.2 to 54.5 µM); MIC (N. gonorrhoeae WHO L; N. gonorrhoeae WHO L, read-out: Minimum Inhibitory Concentration, WHO L): > 64 µg/mL; MIC (N. gonorrhoeae FA1090; N. gonorrhoeae FA1090, read-out: Minimum Inhibitory Concentration, FA1090): 1 to 2 µg/mL (≈ 1.7 to 3.41 µM)
CCN1CCN(C(=O)NC(C(=O)N[C@H]2Cc3cccc(C(=O)O)c3OB2O)c2ccc(C(=O)O)c(O)c2)C(=O)C1=O (stereo partly drawn) [Example 196, (3R)-3-(2-(4-carboxy-3-hydroxyphenyl)-2-(4-ethyl-2,3-dioxopiperazine-1-carboxamido)acetamido)-2-hydroxy-3,4-dihydro-2H-benzo[e][1,2]oxaborinine-8-carboxylic acid]	4 to 8 (≈ 7.04 to 14.1 µM)	16 to 32 (≈ 28.2 to 56.3 µM)	1 to 2 (≈ 1.76 to 3.52 µM)	4 to 8 (≈ 7.04 to 14.1 µM)	4 to 8 (≈ 7.04 to 14.1 µM)	4 to 8 (≈ 7.04 to 14.1 µM)	16 to 32 (≈ 28.2 to 56.3 µM)	0.25 to 0.5 (≈ 0.44 to 0.88 µM)	0.5 to 1 (≈ 0.88 to 1.76 µM)	< 0.25	32 to 64 (≈ 56.3 to 113 µM)	2 to 4 (≈ 3.52 to 7.04 µM)	8 to 16 (≈ 14.1 to 28.2 µM)	–
CCN1CCN(C(=O)NC(C(=O)N[C@H]2Cc3cccc(C(=O)O)c3OB2O)c2c(F)cc(NC(C)=O)cc2F)C(=O)C1=O (stereo partly drawn) [Example 188, (3R)-3-(2-(4-acetamido-2,6-difluorophenyl)-2-(4-ethyl-2,3-dioxopiperazine-1-carboxamido)acetamido)-2-hydroxy-3,4-dihydro-2H-benzo[e][1,2]oxaborinine-8-carboxylic acid]	> 64	> 64	4 to 8 (≈ 6.65 to 13.3 µM)	16 to 32 (≈ 26.6 to 53.2 µM)	16 to 32 (≈ 26.6 to 53.2 µM)	4 to 8 (≈ 6.65 to 13.3 µM)	> 64	0.25 to 0.5 (≈ 0.416 to 0.831 µM)	2 to 4 (≈ 3.33 to 6.65 µM)	< 0.25	32 to 64 (≈ 53.2 to 106 µM)	2 to 4 (≈ 3.33 to 6.65 µM)	32 to 64 (≈ 53.2 to 106 µM)	–
NCCN1CCN(C(=O)N[C@H](C(=O)N[C@H]2Cc3cccc(C(=O)O)c3OB2O)c2ccc(O)c(Cl)c2F)C(=O)C1=O (single isomer, unassigned) [Example 187]	> 64	> 64	> 64	> 64	> 64	> 64	> 64	4 to 8 (≈ 6.76 to 13.5 µM)	32 to 64 (≈ 54.1 to 108 µM)	2 to 4 (≈ 3.38 to 6.76 µM)	> 128	8 to 16 (≈ 13.5 to 27 µM)	> 128	–
